Drawing on US20260199369A1, “COMPOUNDS FOR THE TREATMENT OF NEUROMUSCULAR DISORDERS” (NMD PHARMA A/S, priority 2022, published 2026), this text covers activation for 29 molecules.

For the first assay, the system named is isolated rat soleus muscles. The assay is described as follows: Measurement of force in an in vitro model: recovery of contractile force of isolated rat soleus nerve-muscle preparation after tubocurarine. Particulars: 40 min, 25 μM of test compound, tubocurarine 115 nM, after 40 mins of compound exposure, read-out: Point increase (%): percentage increase of initial force that was restored. The procedure: The current disclosure relates to compounds that inhibit CIC-1 ion channels and increase muscle excitability and thereby improve muscle function in clinical conditions where muscle activation is failing. Such conditions result in loss of contractile function of skeletal muscle, weakness and excessive fatigue. In this series of experiments the compounds were tested for their ability to restore contractile function of isolated rat muscle when the neuromuscular transmission had been compromised akin to neuromuscular disorders.
Experimentally, soleus muscles from 4-5 wk old rats were isolated with the motor nerve remaining attached. The nerve-muscle preparations were mounted in experimental setups that enabled electrical stimulation of the motor nerve. Stimulation of the motor nerve led to activation of the muscle fibres and ensuing force production that was recorded. The nerve-muscle preparations were also in these experiments incubated in the standard Krebs Ringer (see example 15) and the solution was heated to 30° C. and continuously equilibrated with a mixture of 95% O2 and 5% CO2, pH ~7.4.
After mounting the nerve-muscle preparation in the experimental setup, the contractile function of the muscle was initially assessed under the control conditions. Sub-maximal concentration of tubocurarine (115 nM), an acetylcholine receptor antagonist, was then added to the experimental bath to impose partial inhibition of the ability of the motor nerve to activate the muscle fibres. The experimental condition mimics the failing neuromuscular transmission in a range of neuromuscular disorders. After addition of tubocurarine the contractile force declined over the next 90 minutes to 10-50% of the control force. The test compound was then added to obtain the required compound concentration in the bath and the contractile force recovered was measured. To quantify the ability of the compound to restore force the percentage of the initial force that was restored was determined after 40 mins of compound exposure and the point increase is reported in Tables 3 to 7.
Regarding `COc1c(Cl)cc2c(c1C(=O)O)OCCN2` [Compound A-14, 6-Chloro-7-methoxy-3,4-dihydro-2H-1,4-benzoxazine-8-carboxylic acid], the activation at 25 µM is 28%.
Take `COc1c(Cl)cc2c(c1C(=O)O)OCCN2CCCc1ccco1` [Compound A-40, 6-Chloro-4-[3-(furan-2-yl)propyl]-7-methoxy-3,4-dihydro-2H-1,4-benzoxazine-8-carboxylic acid]: the activation at 25 µM came out at 14%.
For the molecule `COc1c(Cl)cc2c(c1C(=O)O)OCCN2Cc1cccs1` [Compound A-42, 6-chloro-7-methoxy-4-[(thiophen-2-yl)methyl]-3,4-dihydro-2H-1,4-benzoxazine-8-carboxylic acid], the activation at 25 µM came out at 30%.
With `O=C(O)c1c(F)c(Cl)cc2c1OCCN2CC1CCC1` [Compound A-46, 6-Chloro-4-(cyclobutylmethyl)-7-fluoro-3,4-dihydro-2H-1,4-benzoxazine-8-carboxylic acid], the activation at 25 µM came to 8%.
For `COc1c(Cl)cc2c(c1C(=O)O)OCCN2CCc1cc(F)cc(F)c1` [Compound A-53, 6-Chloro-4-[2-(3,5-difluorophenyl)ethyl]-7-methoxy-3,4-dihydro-2H-1,4-benzoxazine-8-carboxylic acid], the activation at 25 µM is 30%.

The same assay, now with this note: 40 min, 35 μM of test compound, tubocurarine 115 nM, after 40 mins of compound exposure, read-out: Point increase (%): percentage increase of initial force that was restored.
Take `CCCN1CCOc2cc(Cl)c(F)c(C(=O)O)c21` [Compound A-56, 7-Chloro-6-fluoro-4-propyl-3,4-dihydro-2H-1,4-benzoxazine-5-carboxylic acid]: the activation at 35 µM came out at 48%.

The assay is the same for the next values; noted with them: 40 min, 50 μM of test compound, tubocurarine 115 nM, after 40 mins of compound exposure, read-out: Point increase (%): percentage increase of initial force that was restored.
Consider `O=C(O)c1c(F)c(Cl)cc2c1NCCO2` [Compound A-11, 7-Chloro-6-fluoro-3,4-dihydro-2H-1,4-benzoxazine-5-carboxylic acid], for which the activation at 50 µM is 23%.
`CCOc1c(Cl)cc2c(c1C(=O)O)OCCCN2C` [Compound A-16, 7-chloro-8-ethoxy-5-methyl-2,3,4,5-tetrahydro-1,5-benzoxazepine-9-carboxylic acid]: the activation at 50 µM stood at 49%.
As to `O=C(O)c1c(F)c(Cl)cc2c1OCCN2CC1CC1` [Compound A-20, 6-Chloro-4-(cyclopropylmethyl)-7-fluoro-3,4-dihydro-2H-1,4-benzoxazine-8-carboxylic acid], the activation at 50 µM turned out to be 22%.
For the molecule `COc1c(Cl)cc2c(c1C(=O)O)OCCN2C(C)C` [Compound A-32, 6-Chloro-7-methoxy-4-(propan-2-yl)-3,4-dihydro-2H-1,4-benzoxazine-8-carboxylic acid], the activation at 50 µM was 39%.
As to `COc1c(Cl)cc2c(c1C(=O)O)OCCN2CCc1ccccc1` [Compound A-33, 6-Chloro-7-methoxy-4-(2-phenylethyl)-3,4-dihydro-2H-1,4-benzoxazine-8-carboxylic acid], the activation at 50 µM was determined as 25%.
Take `COCC1CN(C)c2cc(Cl)c(OC)c(C(=O)O)c2O1` (centres unmarked) [Compound A-35, 6-Chloro-7-methoxy-2-(methoxymethyl)-4-methyl-3,4-dihydro-2H-1,4-benzoxazine-8-carboxylic acid]: the activation at 50 µM was 21%.
Take `COc1c(Cl)cc2c(c1C(=O)O)OC(C)(C)CN2C` [Compound A-37, 6-Chloro-7-methoxy-2,2,4-trimethyl-3,4-dihydro-2H-1,4-benzoxazine-8-carboxylic acid]: the activation at 50 µM was 51%.
In the case of `COCCN1CCOc2c1cc(Cl)c(F)c2C(=O)O` [Compound A-38, 6-Chloro-7-fluoro-4-(2-methoxyethyl)-3,4-dihydro-2H-1,4-benzoxazine-8-carboxylic acid], the activation at 50 µM amounted to 17%.
Consider `COc1c(Cl)cc2c(c1C(=O)O)OC1(CCC1)CN2C` [Compound A-39, 6-Chloro-7-methoxy-4-methyl-3,4-dihydrospiro[1,4-benzoxazine-2,1′-cyclobutane]-8-carboxylic acid], for which the activation at 50 µM was determined as 35%.

The same assay, now with this note: 40 min, 100 μM of test compound, tubocurarine 115 nM, after 40 mins of compound exposure, read-out: Point increase (%): percentage increase of initial force that was restored.
On to `O=C(O)c1c(F)c(Cl)cc2c1OCCN2Cc1ccccc1` [Compound A-22, 4-Benzyl-6-chloro-7-fluoro-3,4-dihydro-2H-1,4-benzoxazine-8-carboxylic acid], for which the activation at 100 µM came to 15%.
As to `COc1c(Cl)cc2c(c1C(=O)O)OCCN2Cc1nccs1` [Compound A-43, 6-Chloro-7-methoxy-4-[(1,3-thiazol-2-yl)methyl]-3,4-dihydro-2H-1,4-benzoxazine-8-carboxylic acid], the activation at 100 µM stood at 14%.
`COc1c(Cl)cc2c(c1C(=O)O)OCCN2CCCc1nccs1` [Compound A-47, 6-Chloro-7-methoxy-4-[3-(1,3-thiazol-2-yl)propyl]-3,4-dihydro-2H-1,4-benzoxazine-8-carboxylic acid]: the activation at 100 µM is 14%.

Still in this assay, the particulars now being: 40 min, read-out: Point increase (%): percentage increase of initial force that was restored.
Turning to `COc1c(Cl)cc2c(c1C(=O)O)N(C)CCO2` [Compound A-10, 7-Chloro-6-methoxy-4-methyl-3,4-dihydro-2H-1,4-benzoxazine-5-carboxylic acid], the activation at 10 µM came out at 36%.
With `COc1c(Cl)cc2c(c1C(=O)O)OCCCN2C` [Compound A-12, 7-Chloro-8-methoxy-5-methyl-2,3,4,5-tetrahydro-1,5-benzoxazepine-9-carboxylic acid], the activation at 50 µM came out at 54%.
Consider `O=C(O)c1c(F)c(Cl)cc2c1OCCCN2` [Compound A-15, 7-Chloro-8-fluoro-2,3,4,5-tetrahydro-1,5-benzoxazepine-9-carboxylic acid], for which the activation at 50 µM worked out at 51%.
The same measure, in the same setting: in the case of `CC(C)Oc1c(Cl)cc2c(c1C(=O)O)OCCN2C` [Compound A-24, 6-Chloro-4-methyl-7-(propan-2-yloxy)-3,4-dihydro-2H-1,4-benzoxazine-8-carboxylic acid] it was 34%.
As to `CSc1c(Cl)cc2c(c1C(=O)O)OCCN2C` [Compound A-26, 6-Chloro-4-methyl-7-(methylsulfanyl)-3,4-dihydro-2H-1,4-benzoxazine-8-carboxylic acid], the activation at 25 µM stood at 28%.
On to `COc1c(C)cc2c(c1C(=O)O)OCCN2C` [Compound A-31, 7-Methoxy-4,6-dimethyl-3,4-dihydro-2H-1,4-benzoxazine-8-carboxylic acid], for which the activation at 50 µM is 32%.
`O=C(O)c1c(Cl)c(Cl)cc2c1OCCN2Cc1ccccc1` [Compound A-41, 4-Benzyl-6,7-dichloro-3,4-dihydro-2H-1,4-benzoxazine-8-carboxylic acid]: the activation at 100 µM is 28%.
For the molecule `COc1c(Cl)c(F)c2c(c1C(=O)O)OCCN2C` [Compound A-44, 6-Chloro-5-fluoro-7-methoxy-4-methyl-3,4-dihydro-2H-1,4-benzoxazine-8-carboxylic acid], the activation at 25 µM was 35%.
For `O=C(O)c1c(F)c(Cl)cc2c1N(Cc1ccccc1)CCO2` [Compound A-45, 4-Benzyl-7-chloro-6-fluoro-3,4-dihydro-2H-1,4-benzoxazine-5-carboxylic acid], the activation at 10 µM worked out at 43%.
For the molecule `Cc1c(Cl)cc2c(c1C(=O)O)OCCN2C` [Compound A-48, 6-chloro-4,7-dimethyl-3,4-dihydro-2H-1,4-benzoxazine-8-carboxylic acid], the activation at 25 µM stood at 23%.
As for `COc1c(Cl)cc2c(c1C(=O)O)OCCN2Cc1ccccc1` [Compound A-52, 4-Benzyl-6-chloro-7-methoxy-3,4-dihydro-2H-1,4-benzoxazine-8-carboxylic acid], the activation at 25 µM stood at 14%.
